Reference: US20140194480A1, “METHODS FOR THE CONTROL OF TERMITES AND ANTS” (SYNGENTA PARTICIPATIONS AG, priority 2011, published 2014)

Experiments:
termites [1] = experiment: Transfer test: termites exposed 6 h on treated sand, then combined with unexposed termites; total termite mortality; assay type: in vivo; details: for % mortality of the total termites: Table 4; for % mortality: Table 3
Experimental: Washed sand is treated with the experimental compound in a volatile solvent, so as to deliver the desired concentration w/w in the solvent free sand. Once the solvent has evaporated, the sand is thoroughly mixed and made up with deionised water to 3% w/w moisture content. Ca. 5 g of the so treated sand is placed in the base of a 9 cm Petri dish. 20 worker termites are placed on the treated sand and placed in a dark room under similar temperature to their culture colony. After 6 hours the termites are assessed for mortality and carefully removed from the treated sand, before being placed in a similar Petri dish of untreated sand (3% moisture content). 20 further termites are taken from the same colony and placed in the Petri dish with the exposed termites, along with a section of filter paper ca. 2 cm^2. The lid of the Petri dish is replaced and sealed with laboratory film. The so constructed Petri dish arena are placed in a dark room with a similar temperature to the culture colony. Assessments of total termite mortality, symptomology and behaviour are made at daily intervals.

termites [2] = experiment: Treated sand column test: termite mortality and distance tunnelled into treated sand; assay type: in vivo
Experimental: Washed sand was treated with the experimental compound diluted in acetone. The acetone was allowed to evaporate, and the sand thoroughly mixed. De-ionised water was added to the treated sand to give a final water content of 3%. The treated sand was then packed into a glass tube with an internal diameter of 13.2 mm, to produce a 4 cm column. This was held in place at one end with a section of 7% agar. Sections of filter paper were placed at both ends of the column. Approximately 25 mixed age termites were added to the end of the tube containing the agar. Both ends were then sealed with rubber bungs. Assessments were made 1, 2, 3, 7 and 21 days after infestation, measuring termite mortality and the distance tunnelled into the treated sand.

[3] = 1.25 ppm, 0 days after treatment
[4] = 1.25 ppm, 1 day after treatment
[5] = 1.25 ppm, 2 days after treatment
[6] = 1.25 ppm, 3 days after treatment
[7] = 1.25 ppm, 6 days after treatment
[8] = 1.25 ppm, 7 days after treatment
[9] = 1.25 ppm, 8 days after treatment
[10] = 1.25 ppm, 9 days after treatment
[11] = 1.25 ppm, 14 days after treatment
[12] = 2.5 ppm, 0 days after treatment
[13] = 2.5 ppm, 2 days after treatment
[14] = 2.5 ppm, 3 days after treatment
[15] = 2.5 ppm, 6 days after treatment
[16] = 2.5 ppm, 7 days after treatment
[17] = 2.5 ppm, 8 days after treatment
[18] = 2.5 ppm, 9 days after treatment
[19] = 2.5 ppm, 14 days after treatment

## Cc1cc(C2=NCC(c3cc(Cl)cc(Cl)c3)(C(F)(F)F)C2)ccc1C(=O)NC1(C)CSC1 (racemic) [Compound 1b]
Termites [1]; [3]
  % mortality of the total termites: 0%
Termites [1]; [4]
  % mortality of the total termites: 1.5%
Termites [1]; [5]
  % mortality of the total termites: 3.5%
Termites [1]; [6]
  % mortality of the total termites: 5.5%
Termites [1]; [7]
  % mortality of the total termites: 6%
Termites [1]; [8]
  % mortality of the total termites: 6%
Termites [1]; [9]
  % mortality of the total termites: 6%
Termites [1]; [10]
  % mortality of the total termites: 6.5%
Termites [1]; [11]
  % mortality of the total termites: 6.5%
Termites [1]; [12]
  % mortality of the total termites: 0%
Termites [1]; 2.5 ppm, 1 day after treatment
  % mortality of the total termites: 10%
Termites [1]; [13]
  % mortality of the total termites: 19%
Termites [1]; [14]
  % mortality of the total termites: 22.5%
Termites [1]; [15]
  % mortality of the total termites: 27%
Termites [1]; [16]
  % mortality of the total termites: 36%
Termites [1]; [17]
  % mortality of the total termites: 36.5%
Termites [1]; [18]
  % mortality of the total termites: 37%
Termites [1]; [19]
  % mortality of the total termites: 38%
Termites [1]; 5 ppm, 0 days after treatment
  % mortality of the total termites: 0%
Termites [1]; 5 ppm, 1 day after treatment
  % mortality of the total termites: 15%
Termites [1]; 5 ppm, 2 days after treatment
  % mortality of the total termites: 33.5%
Termites [1]; 5 ppm, 3 days after treatment
  % mortality of the total termites: 40.5%
Termites [1]; 5 ppm, 6 days after treatment
  % mortality of the total termites: 52.5%
Termites [1]; 5 ppm, 7 days after treatment
  % mortality of the total termites: 59.5%
Termites [1]; 5 ppm, 8 days after treatment
  % mortality of the total termites: 60%
Termites [1]; 5 ppm, 9 days after treatment
  % mortality of the total termites: 61.5%
Termites [1]; 5 ppm, 14 days after treatment
  % mortality of the total termites: 63.5%

## Cc1cc(C2=NOC(c3cc(Cl)cc(Cl)c3)(C(F)(F)F)C2)ccc1C(=O)NC1CSC1 (racemic) [Compound 5]
Termites [1]; [3]
  % mortality of the total termites: 0%
Termites [1]; [4]
  % mortality of the total termites: 3%
Termites [1]; [5]
  % mortality of the total termites: 12%
Termites [1]; [6]
  % mortality of the total termites: 12%
Termites [1]; [7]
  % mortality of the total termites: 20%
Termites [1]; [8]
  % mortality of the total termites: 24%
Termites [1]; [9]
  % mortality of the total termites: 25%
Termites [1]; [10]
  % mortality of the total termites: 26.5%
Termites [1]; [11]
  % mortality of the total termites: 30%
Termites [1]; [12]
  % mortality of the total termites: 0%
Termites [1]; 2.5 ppm, 1 day after treatment
  % mortality of the total termites: 15%
Termites [1]; [13]
  % mortality of the total termites: 31%
Termites [1]; [14]
  % mortality of the total termites: 32%
Termites [1]; [15]
  % mortality of the total termites: 42%
Termites [1]; [16]
  % mortality of the total termites: 46.5%
Termites [1]; [17]
  % mortality of the total termites: 46.5%
Termites [1]; [18]
  % mortality of the total termites: 49.5%
Termites [1]; [19]
  % mortality of the total termites: 56%
Termites [1]; 5 ppm, 0 days after treatment
  % mortality of the total termites: 0%
Termites [1]; 5 ppm, 1 day after treatment
  % mortality of the total termites: 20.5%
Termites [1]; 5 ppm, 2 days after treatment
  % mortality of the total termites: 42%
Termites [1]; 5 ppm, 3 days after treatment
  % mortality of the total termites: 44%
Termites [1]; 5 ppm, 6 days after treatment
  % mortality of the total termites: 52.5%
Termites [1]; 5 ppm, 7 days after treatment
  % mortality of the total termites: 54.5%
Termites [1]; 5 ppm, 8 days after treatment
  % mortality of the total termites: 56.5%
Termites [1]; 5 ppm, 9 days after treatment
  % mortality of the total termites: 56.5%
Termites [1]; 5 ppm, 14 days after treatment
  % mortality of the total termites: 65.5%

## Cc1cc(C2=NOC(c3cc(Cl)cc(Cl)c3)(C(F)(F)F)C2)ccc1C(=O)NC1(C)CSC1 (racemic) [Compound 1]
Termites [1]; 10 ppm, 2 days after application
  % mortality: 0%
Termites [1]; 10 ppm, 3 days after application
  % mortality: 14%
Termites [1]; 10 ppm, 6 days after application
  % mortality: 30%
Termites [1]; 10 ppm, 7 days after application
  % mortality: 38%
Termites [1]; 10 ppm, 8 days after application
  % mortality: 43%
Termites [1]; 10 ppm, 9 days after application
  % mortality: 50%
Termites [1]; 10 ppm, 10 days after application
  % mortality: 67%
Termites [1]; 10 ppm, 13 days after application
  % mortality: 78%
Termites [1]; 10 ppm, 14 days after application
  % mortality: 83%
Termites [1]; 10 ppm, 15 days after application
  % mortality: 87%
Termites [1]; 10 ppm, 16 days after application
  % mortality: 88%
Termites [1]; 10 ppm, 17 days after application
  % mortality: 92%
Termites [1]; [12]
  % mortality of the total termites: 0%
Termites [1]; 2.5 ppm, 1 day after treatment
  % mortality of the total termites: 0%
Termites [1]; [13]
  % mortality of the total termites: 0.5%
Termites [1]; [14]
  % mortality of the total termites: 0.5%
Termites [1]; [15]
  % mortality of the total termites: 0.5%
Termites [1]; [16]
  % mortality of the total termites: 1%
Termites [1]; [17]
  % mortality of the total termites: 1%
Termites [1]; [18]
  % mortality of the total termites: 1.5%
Termites [1]; [19]
  % mortality of the total termites: 1.5%
Termites [1]; 5 ppm, 0 days after treatment
  % mortality of the total termites: 0%
Termites [1]; 5 ppm, 1 day after treatment
  % mortality of the total termites: 0.5%
Termites [1]; 5 ppm, 2 days after treatment
  % mortality of the total termites: 1.5%
Termites [1]; 5 ppm, 3 days after treatment
  % mortality of the total termites: 1.5%
Termites [1]; 5 ppm, 6 days after treatment
  % mortality of the total termites: 1.5%
Termites [1]; 5 ppm, 7 days after treatment
  % mortality of the total termites: 6%
Termites [1]; 5 ppm, 8 days after treatment
  % mortality of the total termites: 6%
Termites [1]; 5 ppm, 9 days after treatment
  % mortality of the total termites: 7%
Termites [1]; 5 ppm, 14 days after treatment
  % mortality of the total termites: 7.5%
Termites [1]; 10 ppm, 0 days after treatment
  % mortality of the total termites: 0%
Termites [1]; 10 ppm, 1 day after treatment
  % mortality of the total termites: 19.5%
Termites [1]; 10 ppm, 2 days after treatment
  % mortality of the total termites: 23.5%
Termites [1]; 10 ppm, 3 days after treatment
  % mortality of the total termites: 27.5%
Termites [1]; 10 ppm, 6 days after treatment
  % mortality of the total termites: 32.5%
Termites [1]; 10 ppm, 7 days after treatment
  % mortality of the total termites: 33.5%
Termites [1]; 10 ppm, 8 days after treatment
  % mortality of the total termites: 35%
Termites [1]; 10 ppm, 9 days after treatment
  % mortality of the total termites: 35.5%
Termites [1]; 10 ppm, 14 days after treatment
  % mortality of the total termites: 37.5%

## N#Cc1nn(-c2c(Cl)cc(C(F)(F)F)cc2Cl)c(N)c1[S+]([O-])C(F)(F)F (stereo not drawn) [Fipronil]
Termites [2]; Table 1, 0.01 ppm in sand, 1 DAA
  Mortality/average %: 7%
Termites [2]; Table 1, 0.01 ppm in sand, 2 DAA
  Mortality/average %: 7%
Termites [2]; Table 1, 0.01 ppm in sand, 3 DAA
  Mortality/average %: 7%
Termites [2]; Table 1, 0.01 ppm in sand, 7 DAA
  Mortality/average %: 7%
Termites [2]; Table 1, 0.01 ppm in sand, 21 DAA
  Mortality/average %: 52%
Termites [2]; Table 1, 0.1 ppm in sand, 1 DAA
  Mortality/average %: 0%
Termites [2]; Table 1, 0.1 ppm in sand, 2 DAA
  Mortality/average %: 28%
Termites [2]; Table 1, 0.1 ppm in sand, 3 DAA
  Mortality/average %: 33%
Termites [2]; Table 1, 0.1 ppm in sand, 7 DAA
  Mortality/average %: 77%
Termites [2]; Table 1, 0.1 ppm in sand, 21 DAA
  Mortality/average %: 100%
Termites [2]; Table 2, 0.01 ppm in sand, 1 DAA
  Mortality/average %: 27%
Termites [2]; Table 2, 0.01 ppm in sand, 2 DAA
  Mortality/average %: 40%
Termites [2]; Table 2, 0.01 ppm in sand, 3 DAA
  Mortality/average %: 40%
Termites [2]; Table 2, 0.01 ppm in sand, 7 DAA
  Mortality/average %: 40%
Termites [2]; Table 2, 0.01 ppm in sand, 21 DAA
  Mortality/average %: 40%
Termites [2]; Table 2, 0.1 ppm in sand, 1 DAA
  Mortality/average %: 27%
Termites [2]; Table 2, 0.1 ppm in sand, 2 DAA
  Mortality/average %: 30%
Termites [2]; Table 2, 0.1 ppm in sand, 3 DAA
  Mortality/average %: 40%
Termites [2]; Table 2, 0.1 ppm in sand, 7 DAA
  Mortality/average %: 40%
Termites [2]; Table 2, 0.1 ppm in sand, 21 DAA
  Mortality/average %: 40%
Termites [2]; fipronil rates tested (0.1 and 0.01 ppm)
  repellency (in words): not repellent
